Results as given in US9963443B2, “Radiolabeled compounds” (TAKEDA PHARMACEUTICAL COMPANY LIMITED, priority 2014, dated 2018).

Key:
CH24H = CH24H (Macaca mulatta, UniProt I2CYF7); test: PET measurements and image analysis after intravenous bolus of radiotracer; format: in vivo, rhesus macaque (macaca mulatta); conditions: for BPND in the putamen: Logan graphical analysis, cerebellum as reference region, t* 40 min
Protocol: Animals were fasted for 18-24 h before the study. At 2 h prior to injection of the radiopharmaceutical, the animals were anesthetized with intramuscular ketamine (10 mg/kg) and glycopyrrolate (0.01 mg/kg), transferred to the PET camera, and immediately intubated with an endrotracheal tube for continued anesthesia with 2.75% isoflurane administered through a rebreathing circuit. Body temperature was kept at 37° C. using a heated water blanket. Vital signs, including heart rate, blood pressure, respiration rate, oxygen saturation and body temperature, were monitored every 3 to 20 min during the study.
The dynamic series were subsequently reconstructed using filtered back projection with corrections for random, scatter, and attenuation provided by the camera manufacturer.
Four samples of 5 mL were drawn at 3, 10, 30 and 60 min post injection to evaluate the stability in blood as well as the metabolite analysis method and HPLC conditions.
Reconstructed PET image data volumes were transferred to the image processing PMOD software package (PMOD Technologies, Zurich, Switzerland) where the images were realigned with the monkey's individual MRI to apply a volume of interest (VOI) template comprising the following regions: whole brain, caudate nucleus, putamen, globus pallidus, frontal cortex, temporal cortex, occipital cortex, parietal cortex, anterior cingulate cortex, posterior cingulated cortex, hippocampus, thalamus, and cerebellum. Average activity concentration (kBq/cc) within each VOI was determined and time activity curves (TAC) were generated for each study, depicting the regional brain activity concentration over time and reflecting total uptake (specific plus non displaceable). Time activity curves were also expressed in SUV (Standard Uptake Value) units (g/mL) by normalizing by the weight of the animal and the injected dose. Logan graphical analysis with reference region input function was applied to the regional time activity curves with t* fixed at 40 min to obtain an estimate of BPND (Binding Potential relative to the Non-Displaceable compartment), where the cerebellum was used as the reference region.

human CH24H = human CH24H (Homo sapiens (Human), UniProt Q9Y6A2); test: Measurement of CH24H inhibitory activity (24-HC produced from [14C]cholesterol by human CH24H lysate); format: biochemical; conditions: [14C]cholesterol 15 μM, 37° C. for 5 hr
Chain of human CH24H (Q9Y6A2 whole entry): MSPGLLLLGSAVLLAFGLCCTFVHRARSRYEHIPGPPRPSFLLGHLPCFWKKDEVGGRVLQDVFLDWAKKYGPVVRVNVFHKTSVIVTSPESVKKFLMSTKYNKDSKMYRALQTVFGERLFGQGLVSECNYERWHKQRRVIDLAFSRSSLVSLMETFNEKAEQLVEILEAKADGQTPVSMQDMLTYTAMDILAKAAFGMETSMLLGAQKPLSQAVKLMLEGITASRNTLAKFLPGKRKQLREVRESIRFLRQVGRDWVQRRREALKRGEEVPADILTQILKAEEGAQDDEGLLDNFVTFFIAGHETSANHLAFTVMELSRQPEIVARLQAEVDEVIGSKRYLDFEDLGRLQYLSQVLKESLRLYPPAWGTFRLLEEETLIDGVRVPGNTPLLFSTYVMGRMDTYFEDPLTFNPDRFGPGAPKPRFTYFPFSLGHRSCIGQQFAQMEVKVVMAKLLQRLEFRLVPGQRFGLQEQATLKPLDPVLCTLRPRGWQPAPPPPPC
Protocol: The expression of human CH24H was performed using FreeStyle 293 Expression System (Invitrogen). […] After transfection, the cells were cultured at 37° C., 8% CO2 with shaking at 125 rpm for 2 days. The cells were collected by centrifugation, and suspended in a suspension buffer (100 mM potassium phosphate (pH 7.4), 0.1 mM EDTA, 1 mM DTT, 20% Glycerol). The suspended product was disrupted by a polytron homogenizer (manufactured by Kinematica), and centrifuged at 9000×g for 10 min, and the supernatant was collected. The collected supernatant was cryopreserved (−80° C.) as a human CH24H lysate standard product.
For the measurement of CH24H inhibitory activity, using the human CH24H lysate prepared in Experimental Example 2, the amount of 24-HC produced from cholesterol by catalytic activity of CH24H was measured in the presence of a test compound, and compared with that measured in the absence of the test compound. That is, a test compound solution at various concentrations was mixed with a reaction buffer (50 mM potassium phosphate containing 0.1% BSA and Complete, EDTA-free, pH 7.4) and human CH24H lysate. Then, [^14C] cholesterol (53 mCi/mmol specific activity, 15 μM) was added, and CH24H reaction was performed at 37° C. for 5 hr. After completion of the reaction, a quenching solution consisting of chloroform/methanol/distilled water (2:2:1 v/v) was added, and the resulting 24-HC was extracted by shaking. The extract was applied to silica gel thin layer chromatography (ethyl acetate:toluene=4:6), and the obtained ^14C-24HC fraction was measured with BAS2500 (Fujifilm Corporation).
The inhibitory rate (%) and IC50 values (μM) were calculated from the ratio of radioactivity in the presence of a test compound relative to the radioactivity in the absence of the test compound.

[1] = test system: other CNS related human receptors and enzymes; test: Selectivity assay over other CNS related human receptors and enzymes (Eurofins Panlabs, Tables 3-1 and 3-2); format: binding; conditions: at 10 μM
Protocol: The CH24H IC50 is a measure of the ability of the test compound to inhibit the action of the CH24H enzyme. To determine the selectivity of the test compounds for CH24H, inhibitory activities of the compound were determined for other CNS (central nerve system) related receptors and enzymes such as Adenosine A2B, Adrenergic β1, Adrenergic β2, Adrenergic β3, Angiotensin AT2, Bradykinin B1, Cannabinoid CB1, Carbonic Anhydrase II, Acetyl Cholinesterase, Cyclooxygenase (COX-1), Cyclooxygenase (COX-2), Dopamine D1, Dopamine D2L, Dopamine D3, Dopamine D4.2, GABA B1A, GABA B1B, Histamine H1, Histamine H2, Imidazoline I2 (Central), MAO A, MAO B, Muscarinic M1, Muscarinic M2, Muscarinic M3, Opiate κ (OP2, KOP), Opiate μ (OP3; MOP), Metalloproteinase, Phosphodiesterase 4 (PDE4), Phosphodiesterase 5 (PDE5), 5-HT2B, NK2, NK3, Dopamine transporter, Norepinephrine transporter, Serotonin transporter (SERT), Vasopressin V1A. […] Such a result is indicative of the selectivity of the compounds in use as radiotracers for quantitative imaging of CH24H. In general, one of ordinary skill in the art would appreciate that a substance is considered to be effectively used for quantitative imaging of CH24H if it has an activity in inhibiting other CNS related receptors and enzymes with less than 50% at 10 μM. […]

Chain of CH24H (I2CYF7 1-500): as the sequence (Q9Y6A2 whole entry) above, with V87I, G417S, A494T counted along it

IC50 (human CH24H) [nM] | Molecule | also measured
– | O=C(C1CCN(c2cncnc2-c2ccc(F)cc2)CC1)N1CC([18F])C1 [Example 2, (3-[^18F]fluoroazetidin-1-yl) (1-(4-(4-fluorophenyl)pyrimidin-5-yl)piperidin-4-yl)methanone] | BPND in the putamen (CH24H): 2.6; brain kinetics (CH24H; rhesus monkey, in vivo): favorable kinetics with a significant washout following the maximum uptake; regional brain uptake (distribution) (CH24H; rhesus monkey, in vivo): highest uptake in the putamen and caudate; time of maximum SUV in the putamen (CH24H; rhesus monkey, in vivo, iv): ~30 min post injection; whole-brain maximum % ID (CH24H; rhesus monkey, in vivo, iv): 2.3%
5.4 | CN(C(=O)C1CCN(c2cncnc2-c2ccc(F)cc2)CC1)C1CC1 [Reference Example 1, N-cyclopropyl-1-(4-(4-fluorophenyl)pyrimidin-5-yl)-N-methylpiperidine-4-carboxamide] | –
7.4 | CN(C(=O)C1CCN(c2cnccc2-n2cc(Cl)cn2)CC1)C1CCOCC1 [Reference Example 3, 1-(4-(4-chloro-1H-pyrazol-1-yl)pyridin-3-yl)-N-methyl-N-(tetrahydro-2H-pyran-4-yl)piperidine-4-carboxamide] | –
7.1 | Cc1cnn(-c2ccncc2N2CCC(C(=O)N3CC(F)C3)CC2)c1 [Reference Example 4, (3-fluoroazetidin-1-yl) (1-(4-(4-methyl-1H-pyrazol-1-yl)pyridin-3-yl)piperidin-4-yl)methanone] | –
19 | O=C(C1CCN(c2cnccc2-n2cc(Cl)cn2)CC1)N1CC(F)C1 [Reference Example 5, (1-(4-(4-chloro-1H-pyrazol-1-yl)pyridin-3-yl)piperidin-4-yl) (3-fluoroazetidin-1-yl)methanone] | –
20 | O=C(C1CCN(c2cncnc2-c2ccc(F)cc2)CC1)N1CC[C@H](F)C1 [Reference Example 10, (1-(4-(4-fluorophenyl)pyrimidin-5-yl)piperidin-4-yl) ((3S)-3-fluoropyrrolidin-1-yl)methanone] | –
16 | O=C(C1CCN(c2cncnc2-c2ccc(F)cc2)CC1)N1CC[C@@H](F)C1 [Reference Example 11, (1-(4-(4-fluorophenyl)pyrimidin-5-yl)piperidin-4-yl) ((3R)-3-fluoropyrrolidin-1-yl)methanone] | –
20 | CN(C(=O)C1CCN(c2cnccc2-n2cc(Cl)cn2)CC1)[C@H]1CCOC1 [Reference Example 13, 1-(4-(4-chloro-1H-pyrazol-1-yl)pyridin-3-yl)-N-methyl-N-((3S)-tetrahydrofuran-3-yl)piperidine-4-carboxamide] | –
17 | CN(C(=O)C1CCN(c2cnccc2-n2cc(Cl)cn2)CC1)[C@@H]1CCOC1 [Reference Example 14, 1-(4-(4-chloro-1H-pyrazol-1-yl)pyridin-3-yl)-N-methyl-N-((3R)-tetrahydrofuran-3-yl)piperidine-4-carboxamide] | –
6.9 | O=C(C1CCN(c2cnccc2-n2cc(Br)cn2)CC1)N1CC(F)C1 [Reference Example 20, (1-(4-(4-bromo-1H-pyrazol-1-yl)pyridin-3-yl)piperidin-4-yl) (3-fluoroazetidin-1-yl)methanone] | –
4.9 | Cc1cnc(-c2ccncc2N2CCC(C(=O)N3CC(F)C3)CC2)s1 [Reference Example 21, (3-fluoroazetidin-1-yl) (1-(4-(5-methyl-1,3-thiazol-2-yl)pyridin-3-yl)piperidin-4-yl)methanone] | –
17 | Cc1cnn(-c2ccncc2N2CCN(C(=O)N(CCF)Cc3ccc(F)cc3)CC2)c1 [Reference Example 23, N-(4-fluorobenzyl)-N-(2-fluoroethyl)-4-(4-(4-methyl-1H-pyrazol-1-yl)pyridin-3-yl)piperazine-1-carboxamide] | –
10 | O=C(C1CCN(c2cnccc2-n2cc(C3CC3)cn2)CC1)N1CC(F)C1 [Reference Example 26, (1-(4-(4-cyclopropyl-1H-pyrazol-1-yl)pyridin-3-yl)piperidin-4-yl) (3-fluoroazetidin-1-yl)methanone] | –
– | (1-(4-(4-chloro-1H-pyrazol-1-yl)pyridin-3-yl)piperidin-4-yl) (3-[^18F]fluoroazetidin-1-yl)methanone [Example 1] | BPND in the putamen (CH24H): 2.3; brain kinetics (CH24H; female rhesus macaque, PET time activity curves): favorable kinetics with a significant washout following the maximum uptake; regional brain uptake (distribution) (CH24H; female rhesus macaque, PET time activity curves (FIG. 1, FIG. 2)): highest uptake in the putamen and caudate; whole-brain maximum % ID (CH24H; female rhesus macaque, i.v. bolus, PET): 1.6%

Molecule | IC50 (human CH24H) [nM] | also measured
O=C(C1CCN(c2cncnc2-c2ccc(F)cc2)CC1)N1CC(F)C1 [Reference Example 2, (3-fluoroazetidin-1-yl) (1-(4-(4-fluorophenyl)pyrimidin-5-yl)piperidin-4-yl)methanone] | 8.8 | inhibition in the assays listed in Tables 3-1 and 3-2 [1]: less than 50%
